# Data from PMC9848300, “Discovery of novel enasidenib analogues targeting inhibition of mutant isocitrate dehydrogenase 2 as antileukaemic agents” (Journal of Enzyme Inhibition and Medicinal Chemistry, 2023).
# Legend:
# Format in all cases: cell-based
# UO-31 = assay: NCI 60 antitumor screening (single dose / five doses); conditions: Homo sapiens; UO-31 (renal cancer), single dose 10 μM; read-out: Growth inhibition percentage (GI %)
# HCT-116 = assay: as above; conditions: Homo sapiens; HCT-116 (colon cancer), single dose 10 μM; read-out: Growth inhibition percentage (GI %)
# OVCAR-3 = assay: NCI 60 antitumor screening (single dose); conditions: Homo sapiens; OVCAR-3 (ovarian cancer), single dose 10 μM; read-out: Growth inhibition percentage (GI %)
# Summary of the method: (§1)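 Under the NCI Drug Evaluation Branch protocol, each compound is screened at one 10 μM concentration on the 60-line human tumour panel. Growth of treated cells is expressed as G%, and inhibition is reported as 100 − G%.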
# NCI-H23 = assay: NCI 60 antitumor screening (single dose); conditions: Homo sapiens; NCI-H23 (non-small cell lung cancer), single dose 10 μM; read-out: Growth inhibition percentage (GI %)
# Summary of the method: (§2)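 NCI-60 one-dose screen. Dose: 10 μM. Lines: 60 human tumour lines, nine tissue types. Output: GI% = 100 − G%.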
# SNB-19 = assay: NCI 60 antitumor screening (single dose); conditions: Homo sapiens; SNB-19 (CNS cancer), single dose 10 μM; read-out: Growth inhibition percentage (GI %)
# Summary of the method: as §1
# A549/ATCC = assay: NCI 60 antitumor screening (single dose); conditions: Homo sapiens; A549/ATCC (non-small cell lung cancer), single dose 10 μM; read-out: Growth inhibition percentage (GI %)
# Summary of the method: as §1
# NCI-H226 = assay: NCI 60 antitumor screening (single dose); conditions: Homo sapiens; NCI-H226 (non-small cell lung cancer), single dose 10 μM; read-out: Growth inhibition percentage (GI %)
# Summary of the method: as §1
# TK-10 = assay: NCI 60 antitumor screening (single dose); conditions: Homo sapiens; TK-10 (renal cancer), single dose 10 μM; read-out: Growth inhibition percentage (GI %)
# Summary of the method: as §1
# HOP-62 = assay: NCI 60 antitumor screening (single dose); conditions: Homo sapiens; HOP-62 (non-small cell lung cancer), single dose 10 μM; read-out: Growth inhibition percentage (GI %)
# Summary of the method: as §2
# OVCAR-8 = assay: NCI 60 antitumor screening (single dose); conditions: Homo sapiens; OVCAR-8 (ovarian cancer), single dose 10 μM; read-out: Growth inhibition percentage (GI %)
# Summary of the method: as §1
# CAKI-1 = assay: NCI 60 antitumor screening (single dose); conditions: Homo sapiens; CAKI-1 (renal cancer), single dose 10 μM; read-out: Growth inhibition percentage (GI %)
# Summary of the method: as §1
# KM 12 = assay: NCI 60 antitumor screening (single dose); conditions: Homo sapiens, KM12; KM 12 (colon cancer), single dose 10 μM; read-out: Growth inhibition percentage (GI %)
# Summary of the method: as §1
# MCF7 = assay: NCI 60 antitumor screening (single dose); conditions: Homo sapiens; MCF7 (breast cancer), single dose 10 μM; read-out: Growth inhibition percentage (GI %)
# Summary of the method: as §1
# M14 = assay: NCI 60 antitumor screening (single dose); conditions: Homo sapiens; M14 (melanoma), single dose 10 μM; read-out: Growth inhibition percentage (GI %)
# Summary of the method: as §1
# OVCAR-5 = assay: NCI 60 antitumor screening (single dose); conditions: Homo sapiens; OVCAR-5 (ovarian cancer), single dose 10 μM; read-out: Growth inhibition percentage (GI %)
# Summary of the method: as §2
# NCI-H522 = assay: NCI 60 antitumor screening (single dose); conditions: Homo sapiens; NCI-H522 (non-small cell lung cancer), single dose 10 μM; read-out: Growth inhibition percentage (GI %)
# Summary of the method: as §2
# SF-268 = assay: NCI 60 antitumor screening (single dose); conditions: Homo sapiens; SF-268 (CNS cancer), single dose 10 μM; read-out: Growth inhibition percentage (GI %)
# Summary of the method: as §2
# OVCAR-4 = assay: NCI 60 antitumor screening (single dose); conditions: Homo sapiens; OVCAR-4 (ovarian cancer), single dose 10 μM; read-out: Growth inhibition percentage (GI %)
# Summary of the method: as §1
# NCI-H322M = assay: NCI 60 antitumor screening (single dose); conditions: Homo sapiens; NCI-H322M (non-small cell lung cancer), single dose 10 μM; read-out: Growth inhibition percentage (GI %)
# Summary of the method: as §1
# U251 = assay: NCI 60 antitumor screening (single dose); conditions: Homo sapiens, U-251; U251 (CNS cancer), single dose 10 μM; read-out: Growth inhibition percentage (GI %)
# Summary of the method: as §2
# HCC-2998 = assay: NCI 60 antitumor screening (single dose); conditions: Homo sapiens; HCC-2998 (colon cancer), single dose 10 μM; read-out: Growth inhibition percentage (GI %)
# Summary of the method: as §2
# HCT-15 = assay: NCI 60 antitumor screening (single dose / five doses); conditions: Homo sapiens; HCT-15 (colon cancer), single dose 10 μM; read-out: Growth inhibition percentage (GI %)
# MOLT-4 = assay: as above; conditions: Homo sapiens; MOLT-4 (leukaemia), single dose 10 μM; read-out: Growth inhibition percentage (GI %)
# T-47D = assay: as above; conditions: Homo sapiens, T47D; T-47D (breast cancer), single dose 10 μM; read-out: Growth inhibition percentage (GI %)
# 786-0 = assay: as above; conditions: Homo sapiens, 786-0, 786-0 (renal cancer), single dose 10 μM; read-out: Growth inhibition percentage (GI %)
# BT-549 = assay: as above; conditions: Homo sapiens; BT-549 (breast cancer), single dose 10 μM; read-out: Growth inhibition percentage (GI %)
# RPMI-8226 = assay: as above; conditions: Homo sapiens; RPMI-8226 (leukaemia), single dose 10 μM; read-out: Growth inhibition percentage (GI %)
SMILES,inhibition at 10 µM (UO-31) [%],inhibition at 10 µM (HCT-116) [%],inhibition at 10 µM (OVCAR-3) [%],inhibition at 10 µM (NCI-H23) [%],inhibition at 10 µM (SNB-19) [%],inhibition at 10 µM (A549/ATCC) [%],inhibition at 10 µM (NCI-H226) [%],inhibition at 10 µM (TK-10) [%],inhibition at 10 µM (HOP-62) [%],inhibition at 10 µM (OVCAR-8) [%],inhibition at 10 µM (CAKI-1) [%],inhibition at 10 µM (KM 12) [%],inhibition at 10 µM (MCF7) [%],inhibition at 10 µM (M14) [%],inhibition at 10 µM (OVCAR-5) [%],inhibition at 10 µM (NCI-H522) [%],inhibition at 10 µM (SF-268) [%],inhibition at 10 µM (OVCAR-4) [%],inhibition at 10 µM (NCI-H322M) [%],inhibition at 10 µM (U251) [%],other results
"O=C1Nc2ccc(Cl)cc2/C1=N\Nc1nc(N/N=C2/C(=O)Nc3ccc(Cl)cc32)nc(N2CCOCC2)n1 [compound 8b, (3E)-5-Chloro-3-[2–(4-{2-[(3E)-5-chloro-2-oxo-2,3-dihydro-1H-indol-3-ylidene]hydrazin-1-yl}6-(morpholin-4-yl)-1,3,5-triazin-2-yl)hydrazin-1-ylidene]-2,3-dihydro-1H-indol-2-one]",21.4,54.6,47.3,82.8,109,-1.37,42.7,-18.5,62.4,49.9,28,18.8,56.9,22.5,4.93,94.9,50.9,21.3,21.9,96.2,inhibition at 10 µM (HCC-2998): 24.5%; inhibition at 10 µM (HCT-15): 8.4%; inhibition at 10 µM (MOLT-4): 37.5%; inhibition at 10 µM (T-47D): 70.7%; inhibition at 10 µM (786-0): 26.3%; inhibition at 10 µM (BT-549): 106%; inhibition at 10 µM (RPMI-8226): 63.6%
"O=C(NNc1nc(NNC(=O)c2ccccc2)nc(N2CCOCC2)n1)c1ccccc1 [compound 8d, N'-[4-(morpholin-4-yl)-6-(phenylhydrazido)-1,3,5-triazin-2-yl]benzohydrazide]",13.3,-3.34,-5.45,5.69,3.32,1.66,4.42,-10.8,-11.8,3.15,3.15,-5.4,0.71,-0.8,-4.08,-2.83,-1.5,-10.6,4.42,-0.3,inhibition at 10 µM (HCC-2998): -5.88%; inhibition at 10 µM (HCT-15): -2.67%; inhibition at 10 µM (MOLT-4): -8.9%; inhibition at 10 µM (T-47D): -10.8%; inhibition at 10 µM (786-0): -3.15%; inhibition at 10 µM (BT-549): -9.45%; inhibition at 10 µM (RPMI-8226): -9.42%
